Laboratory results: US8263601B2, “Deuterium substituted xanthine derivatives” (CoNCERT Pharmaceuticals, Inc., priority 2009, dated 2012)
Like-named read-outs stand apart in the source and are kept apart here.

Legend:
[1] = Stability of compounds in rat whole blood (Example 35); type: in vitro ADME; settings: 5 μM, 37° C., 2 hours, FIG. 3
Method: This study was performed to evaluate the stability of the title compounds in rat whole blood. Because the ketone (or keto-compound; either pentoxifylline or 409) and its corresponding M-1 alcohol metabolite interconvert, levels of these components were measured after either the keto-compound was added to the blood or the M-1 was added. In other words, in some tests the keto-compound was the starting test compound and in other tests an M-1 metabolite was the starting test compound.
Fresh rat whole blood was obtained from ViviSource Laboratories, Waltham, Mass. Stock solutions (7.5 millimolar (mM)) of test compounds were prepared in dimethyl sulfoxide (DMSO). The 7.5 mM stock solutions were diluted to 500 micromolar (μM) in acetonitrile (ACN). To 990 microliters (μL) of blood pre-warmed to 37° C. for 7 minutes was added 10 μl, of 500 μM test compound to a final concentration of 5 μM. The test compounds were pentoxifylline, (S)-M1 metabolite of pentoxifylline, (R)-M1 metabolite of pentoxifylline, Compound 409, Compound 435(S), and Compound 435(R). The latter two test compounds are deuterated (S)-M1 and (R)-M1 metabolites, respectively, of Compound 409. The reaction mixture was incubated at 37° C. Aliquots (50 μL) were removed at 0 min, 5 min, 15 min, 30 min, 1 hour and 2 hours following the addition of test compound and added to 96-well plates containing 150 μL of ice cold acetonitrile with an internal standard to stop the reaction. The plates were stored at −20° C. for 20 minutes after which 100 μL of 50% acetonitrile/water was added to the wells of the plate prior to centrifugation to pellet precipitated proteins. A 200-μL aliquot of each supernatant was transferred to another 96-well plate and analyzed by LC-MS/MS using an Applied Bio-systems API 4000 mass spectrometer for amounts of the administered compound and its specific metabolite listed in Table 11 below.
The results of this study are depicted in FIGS. 2 and 3.

[2] = Pharmacokinetic study of 435(S) and other representative compounds in chimps after oral dosing (Example 40); type: in vivo; settings: species named in label measured in plasma
Method: 435(S) and representative compounds 121(S), 137(S), 421(S) and 437(S) were separately dissolved in warm (65° C.) water at a concentration [[of 10 mg/mL]]. The same protocol described for Example 39 was then followed for each representative compound.

[3] = Compound stability in human liver microsomes (Example 36); type: in vitro ADME; settings: 30 minutes
Method: Example 36 is similar to Example 35 in design, except that human liver microsomes were used instead of rat whole blood to study the metabolism of the compounds.
Human liver microsomes (20 mg/mL) were obtained from Xenotech, LLC (Lenexa, Kans.). β-nicotinamide adenine dinucleotide phosphate, reduced form (NADPH), magnesium chloride (MgCl2), and dimethyl sulfoxide (DMSO) were purchased from Sigma-Aldrich.
Stock solutions containing 7.5 mM of test compounds (pentoxifylline, (S)-M1 metabolite, (R)-M1 metabolite, Compound 409, Compound 435(S), and Compound 435(R)) were prepared in DMSO. The 7.5-mM stock solutions were diluted to 250 μM in acetonitrile (ACN). The human liver microsomes were diluted to 2.5 mg/mL in 0.1 M potassium phosphate buffer, pH 7.4, containing 3 mM MgCl2. The diluted microsomes were added to wells of a 96-well deep-well polypropylene plate in triplicate. 10 μL of the 250 μM test compound was added to the microsomes and the mixture was pre-warmed to 37° C. for 10 minutes. Reactions were initiated by addition of pre-warmed NADPH solution. The final reaction volume was 0.5 mL and contained 2.0 mg/mL human liver microsomes, 5 μM test compound, and 2 mM NADPH in 0.1M potassium phosphate buffer, pH 7.4, and 3 mM MgCl2. The reaction mixtures were incubated at 37° C., and 50-μL aliquots were removed at 0, 5, 10, 20, and 30 minutes and added to shallow-well 96-well plates which contained 50 μL of ice-cold acetonitrile with internal standard to stop the reactions. The plates were stored at 4° C. for 20 minutes after which 100 μL of water was added to the wells of the plate before centrifugation to pellet precipitated proteins. Supernatants were transferred to another 96-well plate and analyzed for the amount of the administered compound and its specific metabolite (listed in Table 11 above) by LC-MS/MS using an Applied Bio-systems API 4000 mass spectrometer.
The results of this study are depicted in FIGS. 4 and 5. […]

[4] = female, plasma, po, 65 mg, Table 17 i): female chimp, 435(S) and 121(S), read-out: AUC0-12 Female
[5] = female, plasma, po, 65 mg, Table 17 ii): female chimp, 435(S) and 137(S), read-out: AUC0-12 Female
[6] = female, plasma, po, 65 mg, Table 17 iii): female chimp, 435(S) and 421(S), read-out: AUC0-12 Female
[7] = female, plasma, po, 65 mg, Table 17 iv): female chimp, 435(S) and 437(S), read-out: AUC0-12 Female
[8] = male, plasma, po, 65 mg, Table 17 i): male chimp, 435(S) and 121(S), read-out: AUC0-12 Male
[9] = male, plasma, po, 65 mg, Table 17 ii): male chimp, 435(S) and 137(S), read-out: AUC0-12 Male
[10] = male, plasma, po, 65 mg, Table 17 iii): male chimp, 435(S) and 421(S), read-out: AUC0-12 Male
[11] = male, plasma, po, 65 mg, Table 17 iv): male chimp, 435(S) and 437(S), read-out: AUC0-12 Male

AUC(0-t) [2, 4] [ng·h/mL] | AUC(0-t) [2, 5] [ng·h/mL] | AUC(0-t) [2, 6] [ng·h/mL] | AUC(0-t) [2, 7] [ng·h/mL] | AUC(0-t) [2, 8] [ng·h/mL] | AUC(0-t) [2, 9] [ng·h/mL] | AUC(0-t) [2, 10] [ng·h/mL] | AUC(0-t) [2, 11] [ng·h/mL] | SMILES | Keto-compound (pentoxifylline or Compound 409) formed from M-1 alcohol [1] | Keto-compound (pentoxifylline or Compound 409) formed from M-1 alcohol ([3]; human liver microsomes 2.0 mg/mL, 5 μM, NADPH, FIG. 5 columns C and D) | More pentoxifylline produced from (S)-M1 than Compound 409 produced from Compound 435 (S) ([3]; human liver microsomes)
133 | 243 | 947 | 1140 | 354 | 100 | 881 | 686 | [2H]c1nc2c(c(=O)n(CCCC([2H])([2H])[C@@]([2H])(O)C([2H])([2H])[2H])c(=O)n2C)n1C([2H])([2H])[2H] [Compound 435(S), (S)-8-d1-1-(4,4,5,6,6,6-d6-5-Hydroxyhexyl)-3-methyl-7-(methyl-d3)-1H-purine-2,6(3H,7H)-dione] | not detected | – | –
– | – | – | – | – | – | – | – | C[C@H](O)CCCCn1c(=O)c2c(ncn2C)n(C)c1=O [(S)-M1, reference compound] | appreciable amount of pentoxifylline present | significant amount of pentoxifylline present | Approximately 30%
670 | 754 | 376 | 306 | 585 | 719 | 500 | 562 | [2H]c1nc2c(c(=O)n(CCCC(=O)O)c(=O)n2C)n1C([2H])([2H])[2H] [Deuterated M5 (M5a)] | – | – | –
